Measured values as given in patent US9669036B2, “Modulation of reactivation of a latent virus” (priority 2013, dated 2017).

Test system: latent HSV-1(F)
Format: cell-based
Conditions: for Significant Activation of Latent HSV / lowest effective concentration: ganglionic organ cultures in medium containing NGF and EGF; for Significant Activation of Latent HSV: three concentrations tested; for lowest effective concentration: activation of latent HSV; for reactivation of HSV in trigeminal ganglia: ganglia harvested 30 days after infection, TSA 400 nM, MS275 or MC1568 10 μM, 20 μM; for accumulation of viral mRNAs with cycloheximide compared with the drug alone / amounts of the LAT and miRNAs in cycloheximide-treated ganglia compared with the drug alone: cycloheximide 150 μg/ml, TSA 400 nM or NSC74859 10 μM
[1] = NGF+EGF medium, 24 h, CTB 200 μM, 500 μM
[2] = medium containing NGF and EGF, 24 h

O=C(Nc1ccc2c(O)cc(S(=O)(=O)O)cc2c1)Nc1ccc2c(O)cc(S(=O)(=O)O)cc2c1 [AMI-1]
Significant Activation of Latent HSV (24 h after excision): No
Comments: activation of latent HSV (medium containing NGF and EGF, all concentrations tested): No activation

Cn1c(=O)n(-c2ccc(C(C)(C)C#N)cc2)c2c3cc(-c4cnc5ccccc5c4)ccc3ncc21 [BEZ-235]
lowest effective concentration (24 h): 40 nM lowest effective
Significant Activation of Latent HSV (24 h after excision): Yes

CCOc1ccccc1C(=O)Nc1ccc(Cl)c(C(F)(F)F)c1 [CTB, N-(4-Chloro-3-trifluoromethyl-phenyl)-2-ethoxy-benzamide]
decrease of miRNAs and the LAT following exposure to the drug [1]: approximately 10 fold
increase of all viral mRNAs following exposure to the drug [1]: approximately 50 fold

CS(=O)(=O)N1CCN(Cc2cc3nc(-c4cccc5[nH]ncc45)nc(N4CCOCC4)c3s2)CC1 [GDC-0941]
lowest effective concentration (24 h): 10 nM lowest effective
Significant Activation of Latent HSV (24 h after excision): Yes

Cc1sc2c(c1C)C(c1ccc(Cl)cc1)=N[C@@H](CC(=O)OC(C)(C)C)c1nnc(C)n1-2 [JQ1]
Significant Activation of Latent HSV (24 h after excision): No

Cn1cc(/C=C/C(=O)c2cccc(F)c2)cc1/C=C/C(=O)NO [MC1568, (E)-3-(4-((E)-3-(3-fluorophenyl)-3-oxoprop-1-enyl)-1-methyl-1H-pyrrol-2-yl)-N-hydroxyacrylamide]
reactivation of HSV in trigeminal ganglia [2]: induced the reactivation of HSV

NC1(c2ccc(-c3nc4ccn5c(=O)[nH]nc5c4cc3-c3ccccc3)cc2)CCC1 [MK-2206]
lowest effective concentration (24 h): 2.5 nM lowest effective
Significant Activation of Latent HSV (24 h after excision): Yes

Nc1ccccc1NC(=O)c1ccc(CNC(=O)OCc2cccnc2)cc1 [MS275, pyridin-3-ylmethyl 4-((2-aminophenyl)carbamoyl)benzylcarbamate]
reactivation of HSV in trigeminal ganglia [2]: induced the reactivation of HSV

Cc1ccc(S(=O)(=O)OCC(=O)Nc2ccc(C(=O)O)c(O)c2)cc1 [NSC74859]
accumulation of viral mRNAs with cycloheximide compared with the drug alone (NGF+EGF medium, 24 h): consistently lower
amounts of the LAT and miRNAs in cycloheximide-treated ganglia compared with the drug alone (NGF+EGF medium, 24 h): higher
representatives of all four temporally regulated groups of viral genes (ICP27, TK, VP16, UL41 mRNAs) (NGF+EGF medium, 24 h after excision, NSC74859 10 mM and 50 μM): upregulated

Cc1[nH]c2ccccc2c1CCNCc1ccc(/C=C/C(=O)NO)cc1 [Panobinostat]
lowest effective concentration (24 h): 0.5 nM lowest effective

CO[C@H]1C[C@@H]2CC[C@@H](C)[C@@](O)(O2)C(=O)C(=O)N2CCCC[C@H]2C(=O)O[C@H]([C@H](C)C[C@@H]2CC[C@@H](O)[C@H](OC)C2)CC(=O)[C@H](C)/C=C(\C)[C@@H](O)[C@@H](OC)C(=O)[C@H](C)C[C@H](C)/C=C/C=C/C=C/1C [Rapamycin]
lowest effective concentration (24 h): 1 nM lowest effective

CC(/C=C/C(=O)NO)=C\[C@@H](C)C(=O)c1ccc(N(C)C)cc1 [TSA, Trichostatin A]
accumulation of viral mRNAs with cycloheximide compared with the drug alone (NGF+EGF medium, 24 h): similar
amounts of the LAT and miRNAs in cycloheximide-treated ganglia compared with the drug alone (NGF+EGF medium, 24 h): higher
accumulation of mRNAs relative to freshly excised ganglia (NGF+EGF+TSA (400 nM), with or without cycloheximide 150 μg/ml, 24 h): 10 fold
reactivation of HSV in trigeminal ganglia [2]: induced the reactivation of HSV

C[C@@H]1CCN(C(=O)CC#N)C[C@@H]1N(C)c1ncnc2[nH]ccc12 [Tofacitinib]
Significant Activation of Latent HSV (24 h after excision): No

COc1cc2c(NC3CCN(C(C)C)CC3)nc(C3CCCCC3)nc2cc1OCCCN1CCCC1 [UNC0638]
Significant Activation of Latent HSV (24 h after excision): No

COc1cc(/C=C/C(=O)CC(=O)/C=C/c2ccc(O)c(OC)c2)ccc1O [curcumin]
reactivation of HSV and degradation of the LAT and miRNAs (curcumin 100 μM, 300 μM, 24 h, independent of medium (NGF+EGF or antibody to NGF)): blocked
accumulation of the LAT (curcumin at the higher concentration (300 μM)): suppressed
accumulation of small amounts of mRNAs normally detected at the time of excision of the ganglia (medium containing antibody to NGF, compared with freshly excised ganglia): suppressed
